The supplement of paper PMC10307832

How the values were obtained:
Experiment in all cases: relative viability (nuclei count vs DMSO), 5 days (fraction); higher = more cells survive
[1] = compound: C=CCn1c(=O)c2cnc(Nc3ccc(N4CCN(C)CC4)cc3)nc2n1-c1cccc(C(C)(C)O)n1 [Adavosertib] + Cc1cc(Nc2cc(N3CCN(C)CC3)nc(Sc3ccc(NC(=O)C4CC4)cc3)n2)n[nH]1 [Tozasertib] (partner 0.1 µM)
Outline: (§1)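 Lung cancer cell lines, seeded in 1536-well plates, were treated the following day by pin tool with a single drug or with five library-drug doses (not always all listed) in √10 steps on top of a fixed anchor-drug dose. Cells were fixed and nuclei stained in one step after 5 days, and nuclei were counted. Relative viability is the nuclei count for treated wells divided by that for vehicle wells, reported as medians of duplicate plates.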

[2] = compound: COc1nc(N)nc2c1ncn2[C@@H]1O[C@H](CO)[C@@H](O)[C@@H]1O [Nelarabine] + CC1(C)CCC(c2ccc(Cl)cc2)=C(CN2CCN(c3ccc(C(=O)NS(=O)(=O)c4ccc(N[C@H](CCN5CCOCC5)CSc5ccccc5)c(S(=O)(=O)C(F)(F)F)c4)cc3)CC2)C1 [Navitoclax] (partner 0.5 µM)
Outline: as §1

[3] = compound: COc1nc(N)nc2c1ncn2[C@@H]1O[C@H](CO)[C@@H](O)[C@@H]1O [Nelarabine] + C[C@@H](Oc1cc(-c2cnn(C3CCNCC3)c2)cnc1N)c1c(Cl)ccc(F)c1Cl [Crizotinib] (partner 1 µM)
Outline: as §1

[4] = compound: COc1nc(N)nc2c1ncn2[C@@H]1O[C@H](CO)[C@@H](O)[C@@H]1O [Nelarabine] + Nc1nc2[nH]cc(CCc3ccc(C(=O)N[C@@H](CCC(=O)O)C(=O)O)cc3)c2c(=O)[nH]1 [Pemetrexed] (partner 0.2 µM)
Outline: as §1

Row | Cell Line | relative viability ([1]; first compound 0.01 µM) | relative viability ([1]; first compound 0.03162 µM) | relative viability ([1]; first compound 0.1 µM) | relative viability ([1]; first compound 0.3162 µM) | relative viability ([2]; first compound 0.01 µM) | relative viability ([2]; first compound 0.03162 µM) | relative viability ([2]; first compound 0.1 µM) | relative viability ([2]; first compound 0.3162 µM) | relative viability ([2]; first compound 1 µM) | relative viability ([3]; first compound 0.01 µM) | relative viability ([3]; first compound 0.03162 µM) | relative viability ([3]; first compound 0.1 µM) | relative viability ([3]; first compound 0.3162 µM) | relative viability ([3]; first compound 1 µM) | relative viability ([4]; first compound 0.01 µM) | relative viability ([4]; first compound 0.03162 µM) | relative viability ([4]; first compound 0.1 µM) | relative viability ([4]; first compound 0.3162 µM) | relative viability ([4]; first compound 1 µM)
1 | NCI-H441 | 0.688 | 0.685 | 0.801 | 0.636 | 1.13 | 0.707 | 0.912 | 0.5 | 0.49 | 0.715 | 0.856 | 0.723 | 0.836 | 0.716 | 0.249 | 0.277 | 0.27 | 0.238 | 0.282
2 | LCLC-97TM1 | 0.22 | 0.245 | 0.195 | 0.383 | 0.428 | 0.202 | 0.458 | 0.478 | 0.351 | 0.481 | 0.364 | 0.199 | 0.401 | 0.383 | – | – | 0.153 | 0.2 | 0.169
3 | NCI-H2405 | 0.807 | 0.83 | 0.835 | 0.877 | 1 | 0.902 | 0.687 | 0.744 | 0.84 | 0.918 | 0.824 | 0.769 | 0.784 | 0.818 | 0.939 | 1.11 | 1.09 | 1.16 | 1.01
4 | NCI-H460 | 0.533 | 0.495 | 0.534 | 0.721 | – | 1.68 | 1.42 | 1.37 | 1.17 | 1.32 | 1.1 | 1.02 | 1.08 | 1.05 | 0.0547 | 0.0633 | 0.0599 | 0.0615 | 0.0625
5 | LK-2 | 0.172 | 0.2 | 0.171 | 0.19 | 0.975 | – | 1.09 | 0.935 | 0.729 | 0.222 | – | 0.223 | 0.205 | 0.206 | 0.191 | – | 0.26 | 0.273 | 0.294
